Key:
[1] = Gastric juice pH aspirated during gastroscopy, 42-day crossover study; assay type: in vivo, horse; conditions: by Day 14, omeprazole 4 mg/kg orally q24 h
Procedure: (§1) Gastroscopic examinations were performed on all the horses on Day 0, 14, 28, 35 and 42 and nonglandular gastric ulcer number (NGN) and severity (NGS) scores were assigned by the PI (FMA) who was masked to treatment (FIG. 2) (MacAllister et al. 1997). During gastroscopy, gastric juice was aspirated and pH measured.
Gastric juice pH values can be determined as follows: gastric juice of a subject animal is aspirated through the biopsy channel of an endoscope and pH is measured at specified time intervals, particularly 1 hour before and then 1 hour after administration of a therapeutic agent or Supplement composition as disclosed herein. Gastric juice pH values can be compared between the times.

[2] = test system: nonglandular gastric ulcers; experiment: 42-day 2-period crossover equine health study: gastroscopic nonglandular gastric ulcer number (NGN) and severity (NGS) scores; assay type: in vivo, horse; conditions: by Day 14
Procedure: Eight healthy Thoroughbred and Thoroughbred-cross horses from the Equine Health Studies Program (EHSP) herd were used in this study. The study was performed as a 42-day 2-period crossover using a treatment group (n=8) and an untreated control (n=8).
All horses were stall-confined and fed mixed grass hay and sweet feed (OMOLENE® 100; Gray Summit, Mo.). Horses were assigned to the two treatment groups stratified by gastric ulcer score recorded on day 1 of period 1. Treated horses were fed with a Supplement composition of Example 1 above (40 g, twice daily) added to the sweet feed and control horses received no feed supplement.
Prior to beginning the study, all horses underwent physical examination. From Day 1 to Day 14, all horses were treated with omeprazole (GASTROGARD® paste, Merial Limited, Duluth, Ga.; 4 mg/kg, orally q24 h), then omeprazole was discontinued for the remainder of the study. All the horses remained stall-confined. From Day 28 to Day 35, all the horses underwent feed-deprivation, where they were muzzled and deprived of feed for 24 hours and then fed for 24 hours for a total of 96 hours to induce ulcers.
During the feed-deprivation days, the horses were fed 10% of their normal sweet feed, and the treated horses received the Supplement composition of Example 1 above (SMARTPAK® Equine, Plymouth, Mass.). From Day 35 to Day 42, all the horses returned to their normal diet to allow for recovery. The timelines of the events occurring during the period of the 42-day study were depicted in FIG. 1.
as §1

[3] = test system: equine ulcers; conditions: background; cited from earlier work
[4] = omeprazole paste 4 mg/kg orally q24 h Day 1-14

COc1ccc2nc([S+]([O-])Cc3ncc(C)c(OC)c3C)[nH]c2c1 (stereo not drawn) [omeprazole]
gastric juice pH [1]: increased significantly
horses with healed gastric ulcers in each study group ([2]; omeprazole 4 mg/kg orally q24 h, 6/8 horses): 75%
NGN score [2, 4]: significantly decreased
NGS score [2, 4]: significantly decreased
gastric juice pH value in horses [3]: increased
treating equine ulcers [3]: effective

Source: patent US10076549B2, “Gastric health supplement and methods thereof” (SmartPak Equine LLC, priority 2012, dated 2018)
